34 molecules from ChEMBL document CHEMBL1143509, “Novel cyclopentane dicarboxamide sodium channel blockers as a potential treatment for chronic pain” (Bioorg Med Chem Lett, 2005) can be followed below.

The target of data set [1] is T1, Sodium channel protein type 9 subunit alpha (Homo sapiens, UniProt Q15858). In words: Inhibitory constant against voltage-gated sodium channel Nav1.7 in electrophysiology assays (EP). The format is functional.
Data set [2] addresses T1, Sodium channel protein type 9 subunit alpha. As to the kind of experiment: In vitro inhibitory concentration against voltage-gated sodium channel Nav1.7 in voltage-ion-probe-reader (VIPR) assay. The class given is functional.
The nature of data set [3]: Half life period of the compound was determined in rat. The class given is ADME. The conditions noted are these: in vivo.
Data set [4] can be described thus: Bioavailability in rat. The format is ADME, organism-based. As to conditions: in vivo.
A short description of data set [5]: Clearance value of the compound was determined in plasma of rat. The format is ADME, organism-based. As to conditions: read-out: Clp.

Structures are written as SMILES. Bounds are passed on as bounds.

As a reminder, the Ki is a dissociation constant, usually derived from enzyme kinetics or from competition with a known ligand. A high value points to lower affinity. For orientation: IC50 means the concentration needed to halve the response being measured. By half-life is commonly meant how long it takes for the measured level to halve. Lower therefore signals fast loss. What is called bioavailability is dose-corrected exposure relative to a reference, in per cent. Low values mean poor availability, high ones good availability.

T1 sequence (Q15858 whole entry): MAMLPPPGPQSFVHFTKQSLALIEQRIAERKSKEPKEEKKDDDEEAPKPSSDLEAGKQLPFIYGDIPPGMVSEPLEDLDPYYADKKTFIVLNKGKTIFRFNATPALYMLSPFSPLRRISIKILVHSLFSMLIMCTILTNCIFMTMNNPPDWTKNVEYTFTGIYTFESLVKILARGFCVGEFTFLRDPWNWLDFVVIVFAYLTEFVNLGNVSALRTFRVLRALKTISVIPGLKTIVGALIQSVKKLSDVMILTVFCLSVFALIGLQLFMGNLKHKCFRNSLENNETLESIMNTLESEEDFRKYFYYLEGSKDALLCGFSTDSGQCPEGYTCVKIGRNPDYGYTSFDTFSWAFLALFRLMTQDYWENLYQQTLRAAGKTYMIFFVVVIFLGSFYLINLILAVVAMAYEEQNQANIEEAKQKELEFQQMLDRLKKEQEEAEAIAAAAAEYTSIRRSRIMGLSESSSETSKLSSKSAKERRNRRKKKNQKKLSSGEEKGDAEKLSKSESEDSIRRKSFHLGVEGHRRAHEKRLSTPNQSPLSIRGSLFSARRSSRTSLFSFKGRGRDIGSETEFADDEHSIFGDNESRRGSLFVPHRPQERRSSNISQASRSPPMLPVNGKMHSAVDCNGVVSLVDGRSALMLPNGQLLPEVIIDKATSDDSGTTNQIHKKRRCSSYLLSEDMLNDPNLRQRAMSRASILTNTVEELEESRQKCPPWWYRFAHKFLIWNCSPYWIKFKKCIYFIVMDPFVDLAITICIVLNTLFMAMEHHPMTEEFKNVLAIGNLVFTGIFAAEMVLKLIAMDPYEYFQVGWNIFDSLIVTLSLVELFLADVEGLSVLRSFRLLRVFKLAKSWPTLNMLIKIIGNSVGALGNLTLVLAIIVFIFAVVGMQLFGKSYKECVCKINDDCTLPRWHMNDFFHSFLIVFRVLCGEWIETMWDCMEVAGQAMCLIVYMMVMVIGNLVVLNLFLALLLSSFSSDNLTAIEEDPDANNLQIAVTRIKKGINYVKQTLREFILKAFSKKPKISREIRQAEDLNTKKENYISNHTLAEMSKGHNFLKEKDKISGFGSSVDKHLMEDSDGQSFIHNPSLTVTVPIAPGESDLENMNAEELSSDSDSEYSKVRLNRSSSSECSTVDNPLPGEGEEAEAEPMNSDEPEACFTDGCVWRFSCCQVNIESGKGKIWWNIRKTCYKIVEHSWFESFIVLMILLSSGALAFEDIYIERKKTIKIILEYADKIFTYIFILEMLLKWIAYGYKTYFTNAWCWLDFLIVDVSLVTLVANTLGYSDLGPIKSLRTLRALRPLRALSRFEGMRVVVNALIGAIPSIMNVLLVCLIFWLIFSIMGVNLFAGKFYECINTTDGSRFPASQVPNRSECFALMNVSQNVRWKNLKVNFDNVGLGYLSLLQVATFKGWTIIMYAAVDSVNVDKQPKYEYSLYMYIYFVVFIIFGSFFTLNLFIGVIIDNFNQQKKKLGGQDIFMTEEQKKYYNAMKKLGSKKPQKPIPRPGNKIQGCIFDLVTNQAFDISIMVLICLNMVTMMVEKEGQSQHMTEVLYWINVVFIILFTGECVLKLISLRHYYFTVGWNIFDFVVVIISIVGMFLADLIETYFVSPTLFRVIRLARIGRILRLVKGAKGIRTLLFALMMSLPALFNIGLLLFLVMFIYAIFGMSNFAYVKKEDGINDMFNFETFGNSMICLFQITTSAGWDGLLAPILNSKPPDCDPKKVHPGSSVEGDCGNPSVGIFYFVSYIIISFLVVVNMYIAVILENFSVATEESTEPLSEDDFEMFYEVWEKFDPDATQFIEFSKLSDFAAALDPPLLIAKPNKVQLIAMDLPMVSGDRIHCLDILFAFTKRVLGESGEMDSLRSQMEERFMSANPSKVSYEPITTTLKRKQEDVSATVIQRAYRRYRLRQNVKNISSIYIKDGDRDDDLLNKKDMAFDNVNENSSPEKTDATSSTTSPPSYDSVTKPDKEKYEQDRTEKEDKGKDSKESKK

The molecule `NS(=O)(=O)c1ccccc1-c1ccc(CNC(=O)/C=C\C(=O)NCc2ccc(-c3cccs3)s2)cc1` showed a Ki in data set [1] of 410 nM. In data set [2], this molecule gave an IC50 of 520 nM.
Turning to `CN(Cc1ccc(-c2ccccc2S(N)(=O)=O)cc1)C(=O)CCC(=O)NCc1cccc(OC(F)(F)F)c1`, in data set [3], the half-life was 30 min. The bioavailability in data set [4] worked out at 27%. For the same molecule, the clearance in data set [5] was 141 mL/min/kg.
For the molecule `CC(C(=O)NCc1ccc(-c2ccccc2S(N)(=O)=O)cc1)C(C)C(=O)NCc1ccc(-c2cccs2)s1` (stereo not drawn), in data set [2], the half-inhibitory concentration (IC50) came to 1400 nM.
Molecule `NS(=O)(=O)c1ccccc1-c1ccc(CNC(=O)c2cccc(C(=O)NCc3ccc(-c4cccs4)s3)c2)cc1` had a Ki in data set [1] of 6200 nM. The molecule also returned an IC50 in data set [2] of 2900 nM.
In data set [2], `NS(=O)(=O)c1ccccc1-c1ccc(CNC(=O)CC(=O)NCc2ccc(-c3cccs3)s2)cc1` had an IC50 of 860 nM.
`NS(=O)(=O)c1ccccc1-c1ccc(CNC(=O)CCCC(=O)NCc2ccc(-c3cccs3)s2)cc1` had an IC50 in data set [2] of 3200 nM.
Molecule `NS(=O)(=O)c1ccccc1-c1ccc(CNC(=O)c2ccccc2C(=O)NCc2ccc(-c3cccs3)s2)cc1` registered a Ki in data set [1] of 140 nM. This molecule also yielded a half-inhibitory concentration (IC50) in data set [2] of 2200 nM.
`NS(=O)(=O)c1ccccc1-c1ccc(CNC(=O)CCC(=O)NCc2ccc(-c3cccs3)s2)cc1` showed a half-life in data set [3] of 30 min. For the same molecule, the bioavailability in data set [4] worked out at 1.9%. In addition, in data set [1], the inhibitory constant (Ki) turned out to be 150 nM. For the same molecule, the clearance in data set [5] was found to be 68 mL/min/kg. The molecule further yielded a 50% inhibitory concentration (IC50) in data set [2] of 150 nM.
Take `CC(C)(CC(=O)NCc1ccc(-c2ccccc2S(N)(=O)=O)cc1)C(=O)NCc1ccc(-c2cccs2)s1`: the half-inhibitory concentration (IC50) in data set [2] was 2300 nM.
In data set [2], `CC(NC(=O)[C@H]1CCC[C@@H]1C(=O)NCc1ccc(-c2ccccc2S(N)(=O)=O)cc1)c1ccc(-c2cccs2)s1` (mixture of isomers) gave a 50% inhibitory concentration (IC50) of 10000 nM.
For the molecule `CC(NC(=O)[C@H]1CCC[C@@H]1C(=O)NCc1ccc(-c2cccs2)s1)c1ccc(-c2ccccc2S(N)(=O)=O)cc1` (mixture of isomers), the affinity in data set [1] corresponds to a Ki of 50 nM. Besides, in data set [2], inhibition was half-maximal at 1400 nM (IC50).
Turning to `CC(NC(=O)[C@H]1CCC[C@@H]1C(=O)N(C)Cc1ccc(-c2ccccc2S(N)(=O)=O)cc1)c1ccc(-c2cccs2)s1` (mixture of isomers), the IC50 in data set [2] was found to be 10000 nM.
In data set [2], `CN(Cc1ccc(-c2cccs2)s1)C(=O)[C@H]1CCC[C@@H]1C(=O)NCc1ccc(-c2ccccc2S(N)(=O)=O)cc1` (racemic) had a half-maximal inhibitory concentration (IC50) of 5300 nM.
Turning to `CN(Cc1ccc(-c2ccccc2S(N)(=O)=O)cc1)C(=O)[C@H]1CCC[C@@H]1C(=O)NCc1ccc(C(F)(F)F)cc1` (racemic), in data set [1], the affinity, expressed as Ki, was 280 nM. The molecule further gave an IC50 in data set [2] of 2500 nM.
Turning to `CN(Cc1ccc(-c2ccccc2S(N)(=O)=O)cc1)C(=O)[C@H]1CCC[C@@H]1C(=O)N(C)Cc1ccc(-c2cccs2)s1` (racemic), the half-inhibitory concentration (IC50) in data set [2] is above 10000 nM.
For `NS(=O)(=O)c1ccccc1-c1ccc(CNC(=O)[C@H]2CCC[C@@H]2C(=O)NCc2ccc(-c3cccs3)s2)cc1` (racemic), the half-life in data set [3] was 18 min. Besides, in data set [4], the bioavailability was 1.2%. In data set [1], this molecule showed a Ki of 60 nM. Further, the clearance in data set [5] was 39 mL/min/kg. In data set [2], this molecule registered a concentration for half-maximal inhibition (IC50) of 370 nM.
Molecule `NS(=O)(=O)c1ccccc1-c1ccc(CNC(=O)[C@H]2CCC[C@@H]2C(=O)NCc2ccccc2)cc1` (racemic) came in with an IC50 in data set [2] of 5000 nM.
The molecule `NS(=O)(=O)c1ccccc1-c1ccc(CNC(=O)[C@H]2CCC[C@@H]2C(=O)NCc2cccc(OC(F)(F)F)c2)cc1` (racemic) yielded a half-inhibitory concentration (IC50) in data set [2] of 1100 nM.
`CN(Cc1ccc(-c2ccccc2S(N)(=O)=O)cc1)C(=O)[C@H]1CCC[C@@H]1C(=O)NCc1ccccc1` (racemic) returned an IC50 in data set [2] above 10000 nM.
In data set [2], `NS(=O)(=O)c1ccccc1-c1ccc(CNC(=O)[C@H]2CC[C@@H]2C(=O)NCc2ccc(-c3cccs3)s2)cc1` (racemic) came in with an IC50 of 210 nM.
Molecule `NS(=O)(=O)c1ccccc1-c1ccc(CNC(=O)[C@H]2CCC[C@@H]2C(=O)NCc2ccc(-c3ccccc3C(F)(F)F)cc2)cc1` (racemic) came in with an inhibition constant (Ki) in data set [1] of 510 nM. For the same molecule, in data set [2], the IC50 was found to be 370 nM.
For `NS(=O)(=O)c1ccccc1-c1ccc(CNC(=O)[C@H]2CCC[C@@H]2C(=O)NCc2ccc(OC(F)(F)F)cc2)cc1` (racemic) the same measures were 360 nM and 300 nM.
In data set [1], `COc1ccccc1-c1ccc(CNC(=O)[C@H]2CCC[C@@H]2C(=O)NCc2ccc(-c3ccccc3S(N)(=O)=O)cc2)cc1` (racemic) gave an inhibition constant (Ki) of 690 nM. In data set [2], this molecule gave an IC50 of 660 nM.
In the case of `Cc1ccccc1-c1ccc(CNC(=O)[C@H]2CCC[C@@H]2C(=O)NCc2ccc(-c3ccccc3S(N)(=O)=O)cc2)cc1` (racemic), the Ki in data set [1] was 370 nM. Further, 2100 nM corresponded to half-maximal inhibition in data set [2] (IC50).
On to `CN(Cc1ccc(-c2ccccc2S(N)(=O)=O)cc1)C(=O)[C@H]1CCC[C@@H]1C(=O)NCc1cccc(OC(F)(F)F)c1` (racemic), for which, in data set [1], the Ki turned out to be 530 nM. In data set [2], this molecule had an IC50 of 1300 nM.
For `C=C1[C@H](C(=O)NCc2ccc(-c3ccccc3S(N)(=O)=O)cc2)[C@H]1C(=O)NCc1ccc(-c2cccs2)s1` (racemic) the same measures were 5700 nM and 840 nM.
`COc1ccc(CNC(=O)[C@H]2CCC[C@@H]2C(=O)NCc2ccc(-c3ccccc3S(N)(=O)=O)cc2)cc1` (racemic): the affinity in data set [1] corresponds to a Ki of 12000 nM. Moreover, the half-inhibitory concentration (IC50) in data set [2] amounted to 5000 nM.
For `NS(=O)(=O)c1ccccc1-c1ccc(CNC(=O)[C@H]2CCC[C@@H]2C(=O)NCc2ccc([N+](=O)[O-])cc2)cc1` (racemic) the same measures were 2000 nM and 2800 nM.
For `NS(=O)(=O)c1ccccc1-c1ccc(CNC(=O)[C@H]2CCCC[C@@H]2C(=O)NCc2ccc(-c3cccs3)s2)cc1` (racemic) the same measures were 2100 nM and 1400 nM.
Molecule `CN(Cc1ccc(-c2ccccc2S(N)(=O)=O)cc1)C(=O)[C@H]1CCC[C@@H]1C(=O)NCc1ccc(-c2cccs2)s1` (racemic) showed a half-life in data set [3] of 72 min. Moreover, the bioavailability in data set [4] came to 3.3%. In addition, in data set [5], the clearance was 13 mL/min/kg. The concentration for half-maximal inhibition (IC50) in data set [2] is 760 nM.
For `CN(Cc1ccc(-c2ccccc2S(N)(=O)=O)cc1)C(=O)[C@H]1CCC[C@@H]1C(=O)NCc1ccc(OC(F)(F)F)cc1` (racemic), the half-life in data set [3] was 58.8 min. This molecule also registered a bioavailability in data set [4] of 44%. The Ki in data set [1] was found to be 210 nM. Further, the clearance in data set [5] was determined as 14 mL/min/kg. 830 nM corresponded to half-maximal inhibition in data set [2] (IC50).
As to `NS(=O)(=O)c1ccccc1-c1ccc(CNC(=O)[C@H]2CCC[C@@H]2C(=O)NCc2ccc(-c3ccccc3)cc2)cc1` (racemic), the inhibition constant Ki in data set [1] amounted to 30 nM. Also, in data set [2], the IC50 is 660 nM.
On to `NS(=O)(=O)c1ccccc1-c1ccc(CNC(=O)[C@H]2CCC[C@H]2C(=O)NCc2ccc(-c3cccs3)s2)cc1` (racemic), for which the Ki in data set [1] was determined as 670 nM. The molecule also showed a concentration for half-maximal inhibition (IC50) in data set [2] of 1600 nM.
Turning to `COc1ccc(CNC(=O)[C@H]2CCC[C@@H]2C(=O)N(C)Cc2ccc(-c3ccccc3S(N)(=O)=O)cc2)cc1` (racemic), the inhibition constant Ki in data set [1] amounted to 2100 nM. For the same molecule, half-maximal inhibition in data set [2] (IC50) was put at 10000 nM.
